One data set deals with T1, Aurora1 (Homo sapiens, UniProt Q96GD4).
T1 construct: His tag (N); made in house
The experiment in a line: Aurora1 enzymatic test, NuMA phosphorylation with [33P]ATP, Flashplate. In kind it is biochemical. The following applies: Aurora-B/INCENP-C3 recombinant complex, 1 μM ATP. The procedure, abridged: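 Recombinant His-tagged Aurora-B/INCENP-C3 complex (10 nM) phosphorylates 500 nM His-NuMA fragment with 1 µM ATP plus [33P]ATP, 30 minutes at 37° C in Tris pH 7.5 with 5 mM MgCl2, on nickel-chelate Flashplates. Incorporated 33P counted; percent inhibition versus enzyme control after no-enzyme background subtraction.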

A further data set addresses T2, Aurora2 (Homo sapiens, UniProt O14965).
T2 construct: Aurora2: whole recombinant protein comprising an N-terminal histidine tail; His tag (N); made in house; host or cells: E. coli
T2 sequence (O14965 1-403): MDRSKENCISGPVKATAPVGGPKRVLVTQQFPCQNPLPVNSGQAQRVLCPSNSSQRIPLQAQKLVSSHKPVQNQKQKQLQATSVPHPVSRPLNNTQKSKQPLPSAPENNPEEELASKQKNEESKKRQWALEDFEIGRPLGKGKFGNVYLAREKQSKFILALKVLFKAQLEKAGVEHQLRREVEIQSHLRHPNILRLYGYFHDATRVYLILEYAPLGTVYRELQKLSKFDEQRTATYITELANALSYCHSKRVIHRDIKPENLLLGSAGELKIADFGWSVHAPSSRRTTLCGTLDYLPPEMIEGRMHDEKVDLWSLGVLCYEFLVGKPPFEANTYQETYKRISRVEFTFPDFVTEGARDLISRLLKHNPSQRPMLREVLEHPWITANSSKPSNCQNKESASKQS
Put plainly: Aurora2 enzymatic test, NuMA phosphorylation with [33P]ATP, Flashplate. The following applies: whole recombinant protein, 1 μM ATP. In kind it is biochemical. The procedure, abridged:
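Full-length His-tagged Aurora2 (E. coli, >82% pure) at 10 nM phosphorylated 500 nM His-NuMA fragment on Ni-chelate Flashplates. Conditions were pH 7.5 Tris buffer with 10 mM MgCl2, 1 μM ATP plus [33P]ATP, 30 min at 37 °C.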

The target of a further data set is T3, CDK2/cycline E (Homo sapiens, UniProt P24941).
T3 construct: made in house; host or cells: Sf21 insect cells (baculovirus coinfection)
Put plainly: CDK2/cyclineE Flashplate test in 96-well format. The note with it: CDK2/cycline E complex, 1 μM ATP. Format: biochemical. The procedure, abridged: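 Recombinant human CDK2/cyclin E (His-tagged cyclin E, coexpressed in Sf21 cells), 20 nM, phosphorylates biotinylated pRb peptide (10 μM) with 1 μM ATP plus [γ-33P]ATP in HEPES pH 7.5, MgCl2, DTT at 30 °C. Inhibitors tested at 10 μM down to 0.014 μM; 33P incorporation read by scintillation on streptavidin plates.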

A further data set has as its target T4, Tie2 (Homo sapiens, UniProt Q02763).
T4 construct: amino acids of the intracellular domain 776-1124; made in house; host or cells: baculovirus expression (pFastBacGT vector)
The experiment in a line: Tie2 kinase test, phosphorylation of PLC with GST-Tie2. In kind it is biochemical. The note with it: GST-Tie2 intracellular domain 776-1124.

Counter-ions that a name gives are not always drawn.

T4 sequence (Q02763 776-1124): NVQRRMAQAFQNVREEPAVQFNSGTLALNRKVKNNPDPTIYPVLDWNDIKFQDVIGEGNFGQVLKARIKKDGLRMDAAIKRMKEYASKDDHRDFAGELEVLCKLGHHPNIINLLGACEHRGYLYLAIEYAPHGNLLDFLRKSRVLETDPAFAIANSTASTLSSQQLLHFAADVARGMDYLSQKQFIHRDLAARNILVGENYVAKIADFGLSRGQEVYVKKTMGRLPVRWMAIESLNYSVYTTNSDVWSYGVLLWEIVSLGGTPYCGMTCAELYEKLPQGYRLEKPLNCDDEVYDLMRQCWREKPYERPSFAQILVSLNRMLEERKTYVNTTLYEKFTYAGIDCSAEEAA
T1 sequence (Q96GD4 whole entry, species assumed): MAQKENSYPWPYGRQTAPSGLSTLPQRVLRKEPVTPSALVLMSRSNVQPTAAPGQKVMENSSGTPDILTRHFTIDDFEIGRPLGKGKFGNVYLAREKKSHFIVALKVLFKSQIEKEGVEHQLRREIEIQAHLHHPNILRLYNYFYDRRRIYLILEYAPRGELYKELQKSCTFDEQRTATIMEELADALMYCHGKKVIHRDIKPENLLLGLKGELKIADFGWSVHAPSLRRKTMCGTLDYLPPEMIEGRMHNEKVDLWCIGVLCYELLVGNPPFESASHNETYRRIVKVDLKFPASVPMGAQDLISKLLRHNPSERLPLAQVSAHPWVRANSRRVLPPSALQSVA
T1 sequence (Q9NQS7 835-903 partner limits assumed, species assumed): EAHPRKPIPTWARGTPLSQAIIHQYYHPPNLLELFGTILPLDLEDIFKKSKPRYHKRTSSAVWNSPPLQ

`CN1CCCN(Cc2ccc(C(=O)Nc3n[nH]c4sc(C(=O)NN(C)c5ccc(Cl)cc5)cc34)cc2)CC1` (as salt: salt) [Example 12b, 4-(4-methylperhydro-1,4-diazepin-1-ylmethyl)-N-[5-(N′-(4-chlorophenyl)-N′-methylhydrazinocarbonyl)-1H-thieno[2,3-c]pyrazol-3-yl]benzamide] showed a melting point of 162 °C.
Take `CN(NC(=O)c1cc2c(NC(=O)c3ccc(CN4CCOCC4)cc3)n[nH]c2s1)c1ccccc1` [Example 8, N-[5-(N′-methyl-N′-phenylhydrazinocarbonyl)-1H-thieno[2,3-c]pyrazol-3-yl]-4-morpholin-4-ylmethylbenzamide]: the melting point was found to be 242 °C. Moreover, on Aurora1, the IC50 amounted to 29 nM. In addition, the IC50 on Aurora2 stood at 8 nM. The compound also showed an IC50 on CDK2/cycline E of 134 nM. Also, the IC50 against Tie2 worked out at 252 nM.
Regarding `CN(Cc1ccc(C(=O)Nc2n[nH]c3sc(C(=O)NN(C)c4ccccc4)cc23)cc1)c1ccccc1` [Example 24, 4-[(methylphenylamino)methyl]-N-[5-(N′-methyl-N′-phenylhydrazinocarbonyl)-1H-thieno[2,3-c]pyrazol-3-yl]benzamide], the melting point came to 242 °C. The half-inhibitory concentration (IC50) at Aurora1 was determined as 288 nM. The IC50 on Aurora2 came to 49 nM. For the same compound, the IC50 against CDK2/cycline E is 1490 nM. Moreover, the IC50 on Tie2 worked out at 1030 nM.
As to `CN(NC(=O)c1cc2c(NC(=O)c3ccc(OCCN4CCOCC4)cc3)n[nH]c2s1)c1ccccc1` [Example 46, N-[5-(N′-methyl-N′-phenylhydrazinocarbonyl)-1H-thieno[2,3-c]pyrazol-3-yl]-4-(2-morpholin-4-ylethoxy)benzamide], the IC50 was 12 nM at Aurora1, 6 nM at Aurora2, 100 nM at CDK2/cycline E and 275 nM at Tie2.
For `CN(NC(=O)c1cc2c(NC(=O)c3ccc(CN4CCNCC4)cc3)n[nH]c2s1)c1ccccc1` [Example 13a, N-[5-(N′-methyl-N′-phenylhydrazinocarbonyl)-1H-thieno[2,3-c]pyrazol-3-yl]-4-piperazin-1-ylmethylbenzamide], in that order: 141 nM, 23 nM, 151 nM and 679 nM.
For `CN(NC(=O)c1cc2c(NC(=O)c3ccc(CN4CCCCC4)cc3)n[nH]c2s1)c1ccccc1` [Example 17a, N-[5-(N′-methyl-N′-phenylhydrazinocarbonyl)-1H-thieno[2,3-c]pyrazol-3-yl]-4-piperidin-1-ylmethylbenzamide], in that order: 59 nM, 7 nM, 175 nM and 482 nM.
The corresponding values for `CC1CN(Cc2ccc(C(=O)Nc3n[nH]c4sc(C(=O)NN(C)c5ccc(Cl)cc5)cc34)cc2)CC(C)N1` (stereo not shown) [Example 11b, 4-(3,5-dimethylpiperazin-1-ylmethyl)-N-[5-(N′-(4-chlorophenyl)-N′-methylhydrazinocarbonyl)-1H-thieno[2,3-c]pyrazol-3-yl]-benzamide] are 216 nM, 73 nM, 77 nM and 704 nM.
For the compound `CCN(CC)CCNCc1ccc(C(=O)Nc2n[nH]c3sc(C(=O)NN(C)c4ccccc4)cc23)cc1` [Example 23a, 4-[(2-diethylaminoethylamino)methyl]-N-[5-(N′-methyl-N′-phenylhydrazinocarbonyl)-1H-thieno[2,3-c]pyrazol-3-yl]-benzamide], the IC50 on Aurora1 amounted to 199 nM; on Aurora2, 65 nM; against CDK2/cycline E, 143 nM; on Tie2 it was 431 nM.
As for `CCN(NC(=O)c1cc2c(NC(=O)c3ccc(N4CCN(C)CC4)cc3)n[nH]c2s1)c1ccc(F)cc1` [Example 37, N-{5-[N′-ethyl-N′-(4-fluorophenyl)hydrazinocarbonyl]-1H-thieno[2,3-c]pyrazol-3-yl}-4-(4-methylpiperazin-1-yl)benzamide], the IC50 at Aurora1 was determined as 32 nM; on Aurora2 it was 20 nM; on CDK2/cycline E, 54 nM; against Tie2, 56 nM.
With `COCCN(NC(=O)c1cc2c(NC(=O)c3ccc(N4CCN(C)CC4)cc3)n[nH]c2s1)c1ccc(F)cc1` [Example 38, N-{5-[N′-(4-fluorophenyl)-N′-(2-methoxyethyl)-hydrazinocarbonyl]-1H-thieno[2,3-c]pyrazol-3-yl}-4-(4-methylpiperazin-1-yl)-benzamide], the IC50 worked out at 21 nM at Aurora1, 4 nM at Aurora2, 214 nM against CDK2/cycline E and 58 nM at Tie2.
The corresponding values for `CN1CCN(c2ccc(C(=O)Nc3n[nH]c4sc(C(=O)NN(C)Cc5ccccc5)cc34)cc2)CC1` [Example 30, N-[5-(N′-benzyl-N′-methylhydrazinocarbonyl)-1H-thieno[2,3-c]pyrazol-3-yl]-4-(4-methylpiperazin-1-yl)benzamide] are 12 nM, 6 nM, 221 nM and 128 nM.
`CN(NC(=O)c1cc2c(NC(=O)c3ccc(Br)cc3)n[nH]c2s1)c1ccccc1` [Example 9, 4-bromo-N-[5-(N′-methyl-N′-phenylhydrazinocarbonyl)-1H-thieno[2,3-c]pyrazol-3-yl]benzamide] had a melting point of 172 °C. Further, the IC50 on Aurora1 is 131 nM. Also, the half-inhibitory concentration (IC50) at Aurora2 came to 157 nM. For the same compound, the IC50 at CDK2/cycline E was found to be 65 nM. Further, the IC50 against Tie2 was 820 nM.
`CC1CN(Cc2ccc(C(=O)Nc3n[nH]c4sc(C(=O)NN(C)c5ccc(Cl)cc5)cc34)cc2)CCN1` (stereo not shown) [Example 14b, N-{5-[N′-(4-chlorophenyl)-N′-methylhydrazinocarbonyl]-1H-thieno[2,3-c]pyrazol-3-yl}-4-(3-methylpiperazin-1-ylmethyl)benzamide]: the IC50 at Aurora1 is 148 nM; at Aurora2, 44 nM; against CDK2/cycline E, 46 nM; against Tie2 it was 425 nM.

(Values after patent US7595320B2, “Hydrazinocarbonyl-thieno[2,3-C]pyrazoles, process for preparing them, compositions containing them and use thereof” (Aventis Pharma S.A., priority 2005, dated 2009).)
